This note sets out measurements from the supplement of paper PMC10307832.

What all share (assay): relative viability (nuclei count vs DMSO), 5 days (fraction); higher = more cells survive
Compound in the experiment “BI-2536 + Bortezomib”: CC[C@@H]1C(=O)N(C)c2cnc(Nc3ccc(C(=O)NC4CCN(C)CC4)cc3OC)nc2N1C1CCCC1 [BI-2536] + CC(C)C[C@H](NC(=O)[C@H](Cc1ccccc1)NC(=O)c1cnccn1)B(O)O [Bortezomib] (partner 0.002 µM)
An outline of the steps:
(§1)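 Each reported value is a median over duplicate plates. It expresses relative viability: treated-well nuclei count divided by vehicle-well nuclei count. Lung cancer cell lines in 1536-well plates were dosed by pin tool a day after seeding, alone with one drug or with a fixed anchor-drug dose plus five library-drug doses (not always all listed) in √10 steps, and nuclei were counted after 5 days.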

Compound in the experiment “BI-2536 + Foretinib”: CC[C@@H]1C(=O)N(C)c2cnc(Nc3ccc(C(=O)NC4CCN(C)CC4)cc3OC)nc2N1C1CCCC1 [BI-2536] + COc1cc2c(Oc3ccc(NC(=O)C4(C(=O)Nc5ccc(F)cc5)CC4)cc3F)ccnc2cc1OCCCN1CCOCC1 [Foretinib] (partner 0.25 µM)
An outline of the steps:
as §1

Compound in the experiment “BI-2536 + Linsitinib”: CC[C@@H]1C(=O)N(C)c2cnc(Nc3ccc(C(=O)NC4CCN(C)CC4)cc3OC)nc2N1C1CCCC1 [BI-2536] + C[C@]1(O)C[C@@H](c2nc(-c3ccc4ccc(-c5ccccc5)nc4c3)c3c(N)nccn32)C1 [Linsitinib] (partner 1 µM)
An outline of the steps:
as §1

Compound in experiment [1]: CC1CC(=O)N(C2=CN=C(N=C2N1C3CCCC3)NC4=C(C=C(C=C4)C(=O)NC5CCN(CC5)C)OC)C [NPK76-II-72-1] + Cc1cc(Nc2cc(N3CCN(C)CC3)nc(Sc3ccc(NC(=O)C4CC4)cc3)n2)n[nH]1 [Tozasertib] (partner 0.1 µM)
In a few lines: as §1

With NCI-H1355, the relative viability with BI-2536 + Bortezomib (first compound 0.01 µM) is 1.21; with BI-2536 + Bortezomib (first compound 0.03162 µM), 1.21; with BI-2536 + Bortezomib (first compound 0.1 µM) it was 0.874; with BI-2536 + Bortezomib (first compound 0.3162 µM), 0.303; with BI-2536 + Bortezomib (first compound 1 µM) it was 0.184; with BI-2536 + Foretinib (first compound 0.01 µM), 0.871. Besides, the relative viability came out at 0.968 with BI-2536 + Foretinib (first compound 0.03162 µM); 0.601 with BI-2536 + Foretinib (first compound 0.1 µM); 0.149 with BI-2536 + Foretinib (first compound 0.3162 µM); 0.18 with BI-2536 + Foretinib (first compound 1 µM); 0.877 with BI-2536 + Linsitinib (first compound 0.01 µM); 0.889 with BI-2536 + Linsitinib (first compound 0.03162 µM). In addition, the relative viability with BI-2536 + Linsitinib (first compound 0.1 µM) stood at 0.856; with BI-2536 + Linsitinib (first compound 0.3162 µM), 0.227; with BI-2536 + Linsitinib (first compound 1 µM), 0.178; in experiment [1] (first compound 0.01 µM), 0.534; in experiment [1] (first compound 0.03162 µM), 0.582; in experiment [1] (first compound 0.1 µM), 0.605. Also, the results for the relative viability in experiment [1] (first compound 0.3162 µM) and in experiment [1] (first compound 1 µM) were 0.543 and 0.609, respectively.
Take NCI-H1734: the relative viability with BI-2536 + Bortezomib (first compound 0.01 µM) was 0.84; in the experiment with BI-2536 + Bortezomib (first compound 0.03162 µM) it was 0.82; in the experiment with BI-2536 + Bortezomib (first compound 0.1 µM), 0.226; with BI-2536 + Bortezomib (first compound 0.3162 µM) it was 0.154; with BI-2536 + Bortezomib (first compound 1 µM), 0.156; with BI-2536 + Foretinib (first compound 0.01 µM), 0.886. Moreover, the relative viability with BI-2536 + Foretinib (first compound 0.03162 µM) amounted to 0.889; with BI-2536 + Foretinib (first compound 0.1 µM), 0.464; with BI-2536 + Foretinib (first compound 0.3162 µM), 0.199; with BI-2536 + Foretinib (first compound 1 µM) it was 0.176; with BI-2536 + Linsitinib (first compound 0.01 µM), 0.947; with BI-2536 + Linsitinib (first compound 0.03162 µM), 0.896. Moreover, the relative viability turned out to be 0.859 with BI-2536 + Linsitinib (first compound 0.1 µM); 0.238 with BI-2536 + Linsitinib (first compound 0.3162 µM); 0.228 with BI-2536 + Linsitinib (first compound 1 µM); 0.29 in experiment [1] (first compound 0.01 µM); 0.271 in experiment [1] (first compound 0.03162 µM); 0.28 in experiment [1] (first compound 0.1 µM). The relative viability in experiment [1] (first compound 0.3162 µM) amounted to 0.261; in experiment [1] (first compound 1 µM), 0.287.
For HARA, the relative viability in the experiment with BI-2536 + Bortezomib (first compound 0.01 µM) amounted to 1.19; in the experiment with BI-2536 + Bortezomib (first compound 0.03162 µM), 1.27; with BI-2536 + Bortezomib (first compound 0.1 µM), 0.751; with BI-2536 + Bortezomib (first compound 0.3162 µM), 0.0898; with BI-2536 + Bortezomib (first compound 1 µM) it was 0.0779; with BI-2536 + Foretinib (first compound 0.01 µM), 0.97. Also, the relative viability was 1.07 with BI-2536 + Foretinib (first compound 0.03162 µM); 0.746 with BI-2536 + Foretinib (first compound 0.1 µM); 0.0569 in the experiment with BI-2536 + Foretinib (first compound 0.3162 µM); 0.0893 with BI-2536 + Foretinib (first compound 1 µM); 0.984 in the experiment with BI-2536 + Linsitinib (first compound 0.01 µM); 1.2 in the experiment with BI-2536 + Linsitinib (first compound 0.03162 µM). Also, the relative viability in the experiment with BI-2536 + Linsitinib (first compound 0.1 µM) worked out at 0.969; with BI-2536 + Linsitinib (first compound 0.3162 µM) it was 0.0681; in the experiment with BI-2536 + Linsitinib (first compound 1 µM), 0.0677; in experiment [1] (first compound 0.01 µM), 0.124; in experiment [1] (first compound 0.03162 µM), 0.0912; in experiment [1] (first compound 0.1 µM), 0.116. Moreover, the relative viability in experiment [1] (first compound 0.3162 µM) worked out at 0.106; in experiment [1] (first compound 1 µM), 0.108.
Consider HCC-15, for which the relative viability worked out at 1.01 with BI-2536 + Bortezomib (first compound 0.01 µM); 0.96 with BI-2536 + Bortezomib (first compound 0.03162 µM); 0.902 with BI-2536 + Bortezomib (first compound 0.1 µM); 0.542 in the experiment with BI-2536 + Bortezomib (first compound 0.3162 µM); 0.114 with BI-2536 + Bortezomib (first compound 1 µM); 0.854 with BI-2536 + Foretinib (first compound 0.01 µM). In addition, the relative viability worked out at 0.648 with BI-2536 + Foretinib (first compound 0.03162 µM); 0.361 with BI-2536 + Foretinib (first compound 0.1 µM); 0.137 with BI-2536 + Foretinib (first compound 0.3162 µM); 0.143 with BI-2536 + Foretinib (first compound 1 µM); 0.921 with BI-2536 + Linsitinib (first compound 0.01 µM); 0.965 in the experiment with BI-2536 + Linsitinib (first compound 0.03162 µM). Moreover, the relative viability stood at 0.815 with BI-2536 + Linsitinib (first compound 0.1 µM); 0.28 in the experiment with BI-2536 + Linsitinib (first compound 0.3162 µM); 0.143 with BI-2536 + Linsitinib (first compound 1 µM); 0.394 in experiment [1] (first compound 0.01 µM); 0.384 in experiment [1] (first compound 0.03162 µM); 0.342 in experiment [1] (first compound 0.1 µM). For the same cell line, the relative viability in experiment [1] (first compound 0.3162 µM) was 0.41; in experiment [1] (first compound 1 µM), 0.462.
Regarding LCLC-97TM1, the relative viability in the experiment with BI-2536 + Bortezomib (first compound 0.01 µM) was determined as 0.658; with BI-2536 + Bortezomib (first compound 0.03162 µM) it was 0.408; with BI-2536 + Bortezomib (first compound 0.1 µM), 0.0735; in the experiment with BI-2536 + Bortezomib (first compound 0.3162 µM), 0.0639; in the experiment with BI-2536 + Bortezomib (first compound 1 µM), 0.0648; in the experiment with BI-2536 + Foretinib (first compound 0.01 µM), 0.958. Further, the relative viability was determined as 0.91 with BI-2536 + Foretinib (first compound 0.03162 µM); 0.637 in the experiment with BI-2536 + Foretinib (first compound 0.1 µM); 0.149 with BI-2536 + Foretinib (first compound 0.3162 µM); 0.179 with BI-2536 + Foretinib (first compound 1 µM); 0.157 with BI-2536 + Linsitinib (first compound 0.01 µM); 0.239 with BI-2536 + Linsitinib (first compound 0.03162 µM). The relative viability in the experiment with BI-2536 + Linsitinib (first compound 0.1 µM) turned out to be 0.168; with BI-2536 + Linsitinib (first compound 0.3162 µM), 0.143; with BI-2536 + Linsitinib (first compound 1 µM) it was 0.113; in experiment [1] (first compound 0.01 µM), 0.177; in experiment [1] (first compound 0.03162 µM), 0.31; in experiment [1] (first compound 0.1 µM), 0.215. Also, the relative viability in experiment [1] (first compound 0.3162 µM) is 0.188; in experiment [1] (first compound 1 µM), 0.228.
NCI-H2170: the relative viability is 1.03 in the experiment with BI-2536 + Foretinib (first compound 0.01 µM); 1.02 with BI-2536 + Foretinib (first compound 0.03162 µM); 0.799 in the experiment with BI-2536 + Foretinib (first compound 0.1 µM); 0.219 with BI-2536 + Foretinib (first compound 0.3162 µM); 0.208 with BI-2536 + Foretinib (first compound 1 µM); 0.688 in experiment [1] (first compound 0.01 µM). The relative viability was 0.708 in experiment [1] (first compound 0.03162 µM), 0.69 in experiment [1] (first compound 0.1 µM), 0.527 in experiment [1] (first compound 0.3162 µM) and 0.812 in experiment [1] (first compound 1 µM).
For NCI-H1703, the relative viability came to 0.313 in the experiment with BI-2536 + Bortezomib (first compound 0.01 µM); 0.252 in the experiment with BI-2536 + Bortezomib (first compound 0.03162 µM); 0.13 with BI-2536 + Bortezomib (first compound 0.1 µM); 0.161 in the experiment with BI-2536 + Bortezomib (first compound 0.3162 µM); 0.11 in the experiment with BI-2536 + Bortezomib (first compound 1 µM); 0.296 in the experiment with BI-2536 + Foretinib (first compound 0.03162 µM). The relative viability is 0.191 with BI-2536 + Foretinib (first compound 0.1 µM); 0.152 in the experiment with BI-2536 + Foretinib (first compound 0.3162 µM); 0.14 with BI-2536 + Foretinib (first compound 1 µM); 0.77 with BI-2536 + Linsitinib (first compound 0.01 µM); 0.296 with BI-2536 + Linsitinib (first compound 0.03162 µM); 0.574 with BI-2536 + Linsitinib (first compound 0.1 µM). For the same cell line, the relative viability with BI-2536 + Linsitinib (first compound 0.3162 µM) was 0.117; with BI-2536 + Linsitinib (first compound 1 µM), 0.0956.
For Calu-6, the relative viability with BI-2536 + Bortezomib (first compound 0.01 µM) stood at 0.871; with BI-2536 + Bortezomib (first compound 0.03162 µM) it was 0.62; with BI-2536 + Bortezomib (first compound 0.1 µM), 0.183; with BI-2536 + Bortezomib (first compound 0.3162 µM), 0.144; with BI-2536 + Bortezomib (first compound 1 µM), 0.141; with BI-2536 + Foretinib (first compound 0.01 µM), 0.8. For the same cell line, the relative viability in the experiment with BI-2536 + Foretinib (first compound 0.03162 µM) was determined as 0.613; with BI-2536 + Foretinib (first compound 0.1 µM), 0.281; with BI-2536 + Foretinib (first compound 0.3162 µM), 0.0815; with BI-2536 + Foretinib (first compound 1 µM) it was 0.0737; with BI-2536 + Linsitinib (first compound 0.01 µM), 0.923; with BI-2536 + Linsitinib (first compound 0.03162 µM), 1.02. The relative viability with BI-2536 + Linsitinib (first compound 0.1 µM) was determined as 0.816; with BI-2536 + Linsitinib (first compound 0.3162 µM) it was 0.0855; with BI-2536 + Linsitinib (first compound 1 µM), 0.0964.
